Test systems include COLO 205; RPMI-8226; HL-60; OVCAR-5; SW-620; TK-10; UO-31; KM12; NCI-H226; HCT-15; SNB-75; NCI/ADR-RES; 786-0; Hs-578T; CAKI-1; PC-3; OVCAR-4; K562; SNB-19; UACC-257.
What all share (test): growth of human tumour cells (NCI), 48 h

Experimental findings from ChEMBL document CHEMBL1201862, “PubChem BioAssay data set” (2004) are described below.

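Step 1: Grow cells in 96-well plates. Step 2: Expose to compound for 48 hours at 5 concentrations. Step 3: Interpolate endpoints linearly; if unreached, use highest concentration. GI50 marks 50% less growth.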 The source made the active and inactive calls. No stated cut-off is given here; in the data, active = GI50 up to about 1.1 µM and inactive = higher.

Turning to `CCN(CCCOc1ccccc1)CCN(CC)CCCOc1ccccc1`, the GI50 with COLO 205 is 5.86 µM (inactive); with RPMI-8226, 0.249 µM (active); with HL-60, 7.46 µM (inactive); in the experiment with OVCAR-5 it was 17 µM (inactive); in the experiment with SW-620 it was 20.8 µM (inactive); in the experiment with TK-10, 12.7 µM (inactive). In addition, the GI50 in the experiment with UO-31 is 10.2 µM (inactive); in the experiment with KM12, 12.2 µM (inactive); in the experiment with NCI-H226 it was 21.8 µM (inactive); in the experiment on HCT-15, 10.4 µM; in the experiment on SNB-75 it was 21.8 µM (inactive); with NCI/ADR-RES it was 20 µM (inactive). Further, the GI50 in the experiment on 786-0 was 18.4 µM (inactive); in the experiment with Hs-578T, 13.5 µM (inactive); in the experiment on CAKI-1, 16.4 µM (inactive); in the experiment on PC-3, 2.52 µM (inactive); in the experiment with OVCAR-4, 18.6 µM (inactive); with K562, 3.1 µM (inactive). Further, the GI50 in the experiment with SNB-19 was 9.1 µM (inactive); in the experiment on UACC-257, 16.2 µM (inactive).
Consider `Cc1ccc(N(C)S(=O)(=O)c2ccccc2)cc1`, for which the GI50 in the experiment with COLO 205 is > 100 µM (inactive); with RPMI-8226, 59.8 µM (inactive); in the experiment with HL-60, > 10 µM (inactive); with OVCAR-5, > 100 µM (inactive); with SW-620 it was > 100 µM (inactive); with TK-10, > 100 µM (inactive). Also, the GI50 in the experiment with UO-31 was > 100 µM (inactive); with KM12, > 100 µM (inactive); in the experiment with NCI-H226 it was > 100 µM (inactive); in the experiment on HCT-15 it was more than 100 µM; with SNB-75, > 100 µM (inactive); in the experiment with NCI/ADR-RES it was > 100 µM (inactive). The GI50 with 786-0 is > 100 µM (inactive); in the experiment with Hs-578T it was > 100 µM (inactive); with CAKI-1, > 100 µM (inactive); with PC-3, 36.2 µM (inactive); in the experiment with OVCAR-4, > 100 µM (inactive); with K562, 34.8 µM (inactive). Moreover, the GI50 in the experiment on SNB-19 and in the experiment with UACC-257 was > 100 µM (inactive) throughout.
In the case of `COc1ccc(-c2nc(O)c3ccccc3n2)cc1`, the GI50 with COLO 205, in the experiment with RPMI-8226, in the experiment on HL-60, in the experiment on OVCAR-5, with SW-620 and with TK-10 was > 100 µM (inactive) each time. In addition, the GI50 in the experiment with UO-31 was > 100 µM (inactive); with KM12, > 100 µM (inactive); with NCI-H226 it was 38.6 µM (inactive); with HCT-15 it was 43.1 µM; in the experiment on SNB-75, 40.4 µM (inactive); in the experiment on NCI/ADR-RES, 27.1 µM (inactive). Also, the GI50 is 48.3 µM (inactive) with 786-0; 2.44 µM (inactive) in the experiment with Hs-578T; 76.6 µM (inactive) with CAKI-1; > 100 µM (inactive) with PC-3; 26.9 µM (inactive) with OVCAR-4; > 100 µM (inactive) in the experiment with K562. Further, the GI50 in the experiment with SNB-19 and with UACC-257 was > 100 µM (inactive) throughout.
